In EP1021178B1, “SELENOPHENE ANTI-TUMOR AGENTS” (Purdue Research Foundation, priority 1996, dated 1997):

Legend:
[1] = in vitro activity of glycoside prodrug (preliminary); conditions: preliminary results
[2] = in vivo activity of glycoside prodrug (preliminary); conditions: preliminary results

With OC[C@H]1O[C@@H](OCc2ccc(-c3ccc(-c4cccs4)s3)s2)[C@H](O)[C@@H](O)[C@@H]1O [β-D-glucoside of 2-hydroxymethyl-∝-terthiophene] the in vitro activities [1] was “retains” and the in vivo activities [2] was “retains”.
